# Read-outs that look alike come from different tables or passages of the source.
# Key:
# MYLK [1] = tested on: MYLK; design: method as in PMID 23398362; conditions: cited from earlier work
# MAPKAPK3 [2] = tested on: MAPKAPK3; design: method as in PMID 23398362; conditions: cited from earlier work
# MAPKAPK3 [3] = target: MAPKAPK3 (Homo sapiens, UniProt Q16644); experiment: TPP-TR in living HL-60 cells; type: cell-based; conditions: 20 μM, single set (no replicates)
# Description: (§1) HL-60 cells (ATCC No. CCL-240) were expanded to about […] in 80 mL cell culture medium (RPMI-1640 supplemented with 10% (v/v) FBS, 1% (v/v) penicillin-streptomycin and 1% (v/v) L-glutamine solution) and divided into four aliquots (20 mL each, 25 million cells per flask). […] The same volume of DMSO was added to the remaining aliquot serving as the vehicle (DMSO) control. After incubation (1 h, 37 °C, 5% CO2, in cell culture CO2 incubator), the cell suspensions were transferred into 50 mL conical tubes, cell number and viability were determined, and after centrifugation (300 relative centrifugal force (rcf), 3 min, room temperature (r.t.)), the supernatants were completely removed and discarded. The cells were washed using 20 mL Dulbecco’s phosphate-buffered saline (PBS), respectively, by resuspension and centrifugation (300 rcf, 3 min, r.t.). After the complete removal of the supernatants, the cells were transferred into pre-weighed 2 mL Eppendorf tubes using 0.5 mL PBS (r.t.), respectively, for resuspending. After centrifugation (300 rcf, 3 min, r.t.) and removing as much as possible of the supernatants, the cell wet weights were determined.
# (§2) The suspensions were shortly centrifuged (1 s or less) using a benchtop centrifuge that was equipped with an inset for PCR tubes to release trapped air and to achieve an even liquid level without pelleting the cells. The 100 µL cell suspensions were then temperature treated by a 7 min pre-incubation at r.t., a 3 min incubation at the following different temperatures in the PCR cycler (DNA Engine Tetrad 2, lid temperature 70 °C, gradient block 1: 36–55 °C, gradient block 2: 48–67 °C), and a 3 min post-incubation at r.t. in a metal heating block for uniform heat dissipation.
# (§3) The cells were lysed by four freeze/thaw cycles consisting of thawing the samples (in a heat block set to 25 °C and shaking at 1250 rpm) accompanied by mixing them several times by inversion and then shock freezing them again in liquid nitrogen. The resulting lysates were kept cold (on ice or 4 °C) from then on. After centrifugation (20,000 rcf, 30 min, 4 °C) to pellet the cell debris together with precipitated and aggregated proteins, the supernatants were recovered and, after determining the total protein concentration (Pierce 660 nm Protein Assay, BSA as standard), the resulting cell extracts containing the fraction of soluble, non-denatured proteins were shock frozen in liquid nitrogen and stored at −80 °C.
# (§4) For each sample set comprising ten temperature range samples, the same volume of the cell extracts containing the fraction of soluble, non-denatured proteins was used for further analysis. Volume calculation for 30 µg total protein was performed as described for SDS-PAGE and immunoblotting. The calculated volume was respectively transferred into 0.5 mL LoBind Eppendorf tubes and evaporated to dryness using vacuum centrifugation (SpeedVac concentrator, Eppendorf, Hamburg, Germany). The dried proteins were each reconstituted in 10 µL of SDS sample buffer (containing DTT) and incubated for 30 min at 50 °C with shaking (700 rpm). 1.111 µL 1 M iodoacetamide (IAA) was added to each sample (final 100 mM IAA), then the samples were mixed and incubated for 30 min at r.t. in the dark. Sample quality was controlled by SDS-PAGE/silver staining using 0.926 µL of each sample (2.5 µg on average for the two lowest temperature samples; 26-well 4–12% Bis-Tris polyacrylamide gels, Novex NuPAGE, Thermo Scientific; 15 min at 50 V, about 1.5 h at 200 V using the recommended MOPS running buffer).
# MYLK [4] = target: T1, MYLK (Homo sapiens, UniProt Q15746); experiment: TPP-TR in living HL-60 cells; type: cell-based; conditions: 20 μM, single set (no replicates)
# Description: as §1, §2, §3, §4
# Target sequence in this assay (Q15746 whole entry): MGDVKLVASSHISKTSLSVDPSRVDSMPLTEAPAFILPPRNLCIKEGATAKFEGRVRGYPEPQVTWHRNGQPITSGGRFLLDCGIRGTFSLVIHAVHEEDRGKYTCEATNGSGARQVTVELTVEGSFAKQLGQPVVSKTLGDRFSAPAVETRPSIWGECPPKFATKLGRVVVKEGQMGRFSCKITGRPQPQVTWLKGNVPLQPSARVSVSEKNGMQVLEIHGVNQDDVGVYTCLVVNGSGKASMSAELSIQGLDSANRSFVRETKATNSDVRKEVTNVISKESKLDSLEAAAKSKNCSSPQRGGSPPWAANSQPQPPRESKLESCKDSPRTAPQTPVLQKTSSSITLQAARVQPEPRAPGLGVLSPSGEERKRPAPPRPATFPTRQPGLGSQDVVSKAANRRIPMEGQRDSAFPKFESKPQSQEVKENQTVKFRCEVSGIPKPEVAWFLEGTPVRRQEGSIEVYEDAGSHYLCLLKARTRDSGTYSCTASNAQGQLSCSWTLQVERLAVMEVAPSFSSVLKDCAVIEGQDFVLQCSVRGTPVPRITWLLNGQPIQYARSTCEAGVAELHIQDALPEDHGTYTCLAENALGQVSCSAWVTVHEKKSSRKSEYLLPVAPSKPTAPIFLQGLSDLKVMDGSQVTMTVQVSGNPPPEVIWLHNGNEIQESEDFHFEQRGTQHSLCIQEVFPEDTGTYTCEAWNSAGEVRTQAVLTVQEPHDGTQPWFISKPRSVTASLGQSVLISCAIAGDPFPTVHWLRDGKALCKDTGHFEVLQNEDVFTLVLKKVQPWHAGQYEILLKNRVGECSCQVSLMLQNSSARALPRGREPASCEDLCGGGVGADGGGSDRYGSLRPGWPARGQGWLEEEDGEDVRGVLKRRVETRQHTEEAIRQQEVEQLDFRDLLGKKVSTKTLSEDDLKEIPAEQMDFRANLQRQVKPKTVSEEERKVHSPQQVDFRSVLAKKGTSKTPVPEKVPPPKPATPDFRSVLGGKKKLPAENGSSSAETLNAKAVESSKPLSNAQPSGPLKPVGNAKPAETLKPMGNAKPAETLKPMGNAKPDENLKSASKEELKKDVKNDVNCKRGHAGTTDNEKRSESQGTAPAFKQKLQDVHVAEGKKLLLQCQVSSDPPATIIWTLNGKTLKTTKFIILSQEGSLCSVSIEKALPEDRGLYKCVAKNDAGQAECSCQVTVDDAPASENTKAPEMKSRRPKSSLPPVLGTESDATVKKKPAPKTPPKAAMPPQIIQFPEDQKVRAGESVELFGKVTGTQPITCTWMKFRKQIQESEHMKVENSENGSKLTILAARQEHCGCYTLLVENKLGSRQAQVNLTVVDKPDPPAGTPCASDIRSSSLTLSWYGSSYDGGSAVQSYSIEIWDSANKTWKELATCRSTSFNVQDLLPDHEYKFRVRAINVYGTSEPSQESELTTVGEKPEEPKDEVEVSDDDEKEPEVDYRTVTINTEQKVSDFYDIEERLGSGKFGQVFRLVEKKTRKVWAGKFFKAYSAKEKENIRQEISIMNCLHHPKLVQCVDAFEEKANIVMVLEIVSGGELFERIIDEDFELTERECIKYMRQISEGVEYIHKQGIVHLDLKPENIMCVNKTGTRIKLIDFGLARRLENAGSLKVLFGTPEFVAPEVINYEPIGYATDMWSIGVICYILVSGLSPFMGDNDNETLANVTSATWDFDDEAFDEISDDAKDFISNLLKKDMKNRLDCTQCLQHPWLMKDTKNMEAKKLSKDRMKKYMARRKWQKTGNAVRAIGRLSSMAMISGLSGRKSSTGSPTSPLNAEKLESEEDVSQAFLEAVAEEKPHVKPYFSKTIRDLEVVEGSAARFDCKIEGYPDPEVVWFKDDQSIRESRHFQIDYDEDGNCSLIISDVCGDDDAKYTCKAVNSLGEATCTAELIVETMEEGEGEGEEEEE
# MAPKAPK2 [5] = target: T2, MAPKAPK2 (Homo sapiens, UniProt P49137); experiment: TPP-TR in living HL-60 cells; type: cell-based; conditions: 20 μM, single set (no replicates)
# Description: as §1, §2, §3, §4
# Target sequence in this assay (P49137 whole entry): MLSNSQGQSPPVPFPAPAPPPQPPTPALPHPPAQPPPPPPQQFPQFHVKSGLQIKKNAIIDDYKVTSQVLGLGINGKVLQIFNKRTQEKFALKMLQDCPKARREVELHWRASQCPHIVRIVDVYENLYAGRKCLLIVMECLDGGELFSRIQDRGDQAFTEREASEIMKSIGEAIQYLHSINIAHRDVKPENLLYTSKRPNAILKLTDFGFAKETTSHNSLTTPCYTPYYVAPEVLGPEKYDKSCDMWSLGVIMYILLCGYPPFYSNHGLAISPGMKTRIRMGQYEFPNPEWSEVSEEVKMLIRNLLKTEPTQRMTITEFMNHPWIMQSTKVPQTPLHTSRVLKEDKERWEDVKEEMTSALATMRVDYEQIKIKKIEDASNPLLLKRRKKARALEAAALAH
# NAPG = NAPG (Homo sapiens, UniProt Q99747); experiment: TPP-CCR in living HL-60 cells
# NAPG, sequence (Q99747 whole entry): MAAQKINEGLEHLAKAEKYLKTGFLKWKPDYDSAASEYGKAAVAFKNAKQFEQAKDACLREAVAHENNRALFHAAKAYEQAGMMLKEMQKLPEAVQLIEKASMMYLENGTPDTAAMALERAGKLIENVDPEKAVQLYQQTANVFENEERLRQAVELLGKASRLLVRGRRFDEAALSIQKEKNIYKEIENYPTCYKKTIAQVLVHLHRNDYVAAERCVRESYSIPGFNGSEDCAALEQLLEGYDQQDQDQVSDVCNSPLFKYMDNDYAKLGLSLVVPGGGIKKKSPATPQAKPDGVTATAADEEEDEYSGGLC
# MAPKAPK2 [6] = tested on: MAPKAPK2; design: method as in PMID 23398362; conditions: cited from earlier work
# MYLK [7] = tested on: MYLK; design: method as in PMID 22037378; conditions: cited from earlier work
# MAPK14 [8] = conditions: cited from earlier work
# MAPKAPK2 [9] = tested on: MAPKAPK2; design: method as in PMID 22037378; conditions: cited from earlier work
# USP24 = USP24 (Homo sapiens, UniProt Q9UPU5); experiment: TPP-CCR in living HL-60 cells
# TRAPPC4 = TRAPPC4 (Homo sapiens, UniProt Q9Y296); experiment: TPP-CCR in living HL-60 cells
# TRAPPC4, sequence (Q9Y296 whole entry): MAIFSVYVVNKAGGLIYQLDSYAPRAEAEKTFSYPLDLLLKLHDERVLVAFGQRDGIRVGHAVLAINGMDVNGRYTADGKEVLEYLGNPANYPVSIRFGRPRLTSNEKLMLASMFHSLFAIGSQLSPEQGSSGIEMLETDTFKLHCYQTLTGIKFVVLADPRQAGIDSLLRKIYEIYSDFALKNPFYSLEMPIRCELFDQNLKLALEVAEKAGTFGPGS
# STX4 = STX4 (Homo sapiens, UniProt Q12846); experiment: TPP-CCR in living HL-60 cells
# STX4, sequence (Q12846 whole entry): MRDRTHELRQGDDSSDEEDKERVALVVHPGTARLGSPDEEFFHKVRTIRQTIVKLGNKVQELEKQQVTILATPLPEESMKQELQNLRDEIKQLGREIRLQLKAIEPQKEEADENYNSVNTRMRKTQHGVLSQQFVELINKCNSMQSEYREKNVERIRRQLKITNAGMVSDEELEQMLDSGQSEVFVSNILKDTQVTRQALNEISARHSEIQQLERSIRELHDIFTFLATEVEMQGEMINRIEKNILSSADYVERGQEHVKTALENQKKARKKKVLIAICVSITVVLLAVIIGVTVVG
# MAPK14 [10] = tested on: MAPK14; design: method as in Seashore-Ludlow et al., Biochemistry 2018; conditions: MAPK14 only, ref Seashore-Ludlow et al., Biochemistry 2018, cited from earlier work
# MRPS34 = MRPS34 (Homo sapiens, UniProt P82930); experiment: TPP-CCR in living HL-60 cells
# MARS = MARS (Homo sapiens, UniProt P56192); experiment: TPP-CCR in living HL-60 cells
# MARS, sequence (P56192 whole entry): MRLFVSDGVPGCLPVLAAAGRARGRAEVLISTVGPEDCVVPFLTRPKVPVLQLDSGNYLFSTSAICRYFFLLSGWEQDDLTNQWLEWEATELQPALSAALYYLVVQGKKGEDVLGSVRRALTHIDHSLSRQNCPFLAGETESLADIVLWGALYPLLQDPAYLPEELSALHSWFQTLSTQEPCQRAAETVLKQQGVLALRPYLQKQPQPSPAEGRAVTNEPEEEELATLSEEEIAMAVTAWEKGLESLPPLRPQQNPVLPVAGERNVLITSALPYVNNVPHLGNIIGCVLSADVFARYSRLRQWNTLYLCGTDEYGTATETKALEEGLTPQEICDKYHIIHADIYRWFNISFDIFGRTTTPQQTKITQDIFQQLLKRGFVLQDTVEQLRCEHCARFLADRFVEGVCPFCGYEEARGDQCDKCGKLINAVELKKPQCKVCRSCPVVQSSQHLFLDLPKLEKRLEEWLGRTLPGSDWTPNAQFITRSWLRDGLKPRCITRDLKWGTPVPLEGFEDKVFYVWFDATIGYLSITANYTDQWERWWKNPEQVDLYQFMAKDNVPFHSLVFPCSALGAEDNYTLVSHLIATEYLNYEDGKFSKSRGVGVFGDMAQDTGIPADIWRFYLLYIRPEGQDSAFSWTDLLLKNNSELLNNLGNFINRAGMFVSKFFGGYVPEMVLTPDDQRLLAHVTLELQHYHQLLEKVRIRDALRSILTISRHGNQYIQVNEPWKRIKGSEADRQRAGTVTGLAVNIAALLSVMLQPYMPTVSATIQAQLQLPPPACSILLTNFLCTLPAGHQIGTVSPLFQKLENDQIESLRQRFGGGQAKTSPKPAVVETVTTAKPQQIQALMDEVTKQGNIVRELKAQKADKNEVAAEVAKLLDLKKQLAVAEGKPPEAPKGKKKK
# MAPKAPK2 [11] = target: T2, MAPKAPK2; experiment: TPP-CCR in living HL-60 cells; conditions: […] °C, TMT-MS
# Target sequence in this assay (P49137 whole entry): as the sequence (P49137 whole entry) above
# Target sequence in this assay (Q16539 2-360 partner limits assumed): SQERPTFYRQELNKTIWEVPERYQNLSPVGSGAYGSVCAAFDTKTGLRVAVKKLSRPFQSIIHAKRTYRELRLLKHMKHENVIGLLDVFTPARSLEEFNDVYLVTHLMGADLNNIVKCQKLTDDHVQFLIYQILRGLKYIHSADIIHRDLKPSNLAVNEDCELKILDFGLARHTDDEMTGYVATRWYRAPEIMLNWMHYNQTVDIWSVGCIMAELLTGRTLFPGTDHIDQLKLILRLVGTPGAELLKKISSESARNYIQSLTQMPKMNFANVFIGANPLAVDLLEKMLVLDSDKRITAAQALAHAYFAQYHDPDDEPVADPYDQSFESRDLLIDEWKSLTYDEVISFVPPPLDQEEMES
# MYLK [12] = target: T1, MYLK; experiment: TPP-CCR in living HL-60 cells
# Target sequence in this assay (Q16539 2-360 partner limits assumed): as above
# Target sequence in this assay (Q15746 whole entry): as the sequence (Q15746 whole entry) above
# MAPK14 [13] = tested on: MAPK14; design: method as in Seashore-Ludlow et al., Biochemistry 2018; conditions: MAPK14 only, extrapolated to 50°C and extracted from figure 3b; ref Seashore-Ludlow et al., Biochemistry 2018; cited from earlier work
# [14] = living HL-60 cells, […] °C, TMT-MS
# MAPKAPK3 (Homo sapiens, UniProt Q16644), sequence (Q16644 whole entry): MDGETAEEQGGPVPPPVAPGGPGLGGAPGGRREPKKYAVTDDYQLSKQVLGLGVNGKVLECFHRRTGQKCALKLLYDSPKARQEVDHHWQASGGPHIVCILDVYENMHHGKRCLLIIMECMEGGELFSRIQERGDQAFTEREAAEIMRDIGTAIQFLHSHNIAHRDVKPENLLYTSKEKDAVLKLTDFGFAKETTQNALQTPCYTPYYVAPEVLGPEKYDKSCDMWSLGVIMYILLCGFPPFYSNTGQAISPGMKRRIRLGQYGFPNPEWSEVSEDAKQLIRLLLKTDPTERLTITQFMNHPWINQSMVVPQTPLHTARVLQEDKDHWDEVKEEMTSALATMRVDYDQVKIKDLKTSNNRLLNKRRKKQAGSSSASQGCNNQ
smiles,measurement,setting,value
C[S+]([O-])c1ccc(-c2nc(-c3ccncc3)c(-c3ccc(F)cc3)[nH]2)cc1 (stereo not drawn) [SB203580],activity against MYLK,MYLK [1],inactivity
same,activity against MAPKAPK3,MAPKAPK3 [2],inactivity
same,thermal stabilization in melting curves (MAPKAPK3),MAPKAPK3 [3],thermal stabilizations
same,thermal stabilization in melting curves (MYLK),MYLK [4],thermal stabilizations
same,thermal stabilization in melting curves (MAPKAPK2),MAPKAPK2 [5],thermal stabilizations
same,EC50,NAPG,1.95 nM
same,Hill slope (NAPG),NAPG; [14],0.24
same,activity against MAPKAPK2,MAPKAPK2 [6],inactivity
same,activity towards MYLK,MYLK [7],inactivity
same,activity against MAPK14,MAPK14 [8],high activity
same,activity towards MAPKAPK2,MAPKAPK2 [9],inactivity
Cn1c(NC[C@@H](N)Cc2ccccc2)nc(-c2ccncc2)c(-c2ccc3ccccc3c2)c1=O [AMG-548],EC50,USP24,2.69 nM
same,Hill slope (USP24),USP24; [14],0.71
same,EC50,TRAPPC4,407 nM
same,Hill slope (TRAPPC4),TRAPPC4; [14],0.43
same,EC50,STX4,132 nM
same,Hill slope (STX4),STX4; [14],0.27
same,"pEC50, Living cells",MAPK14 [10]; extrapolated to 50°C and extracted from figure 3b,8.57
same,"pEC50, Living cells",MAPK14 [10]; extrapolated to […]°C and extracted from figure 3b,8.23
same,thermal stabilization in melting curves (MAPKAPK3),MAPKAPK3 [3],thermal stabilizations
same,thermal stabilization in melting curves (MYLK),MYLK [4],thermal stabilizations
same,thermal stabilization in melting curves (MAPKAPK2),MAPKAPK2 [5],thermal stabilizations
same,EC50,MRPS34,60.3 nM
same,Hill slope (MRPS34),MRPS34; [14],0.26
same,EC50,MARS,209 nM
same,Hill slope (MARS),MARS; [14],0.40
same,Hill slope (MAPKAPK2),MAPKAPK2 [11],0.72
same,EC50,MYLK [12],6.03 nM
same,Hill slope (MYLK),MYLK [12]; [14],0.44
same,"pEC50, Cell extract",MAPK14 [13],8.14

# From PMC9147192, “Small Molecule Arranged Thermal Proximity Coaggregation (smarTPCA)—A Novel Approach to Characterize Protein–Protein Interactions in Living Cells by Similar Isothermal Dose–Responses” (International Journal of Molecular Sciences, 2022)
